The record followed here is ChEMBL document CHEMBL1129224, “Rapid decomposition of peroxynitrite by manganese porphyrin-antioxidant redox couples” (Bioorg Med Chem Lett, 1997).

Common to all, as to assay type: ADME
Data set [1] in a line: The compound was evaluated for the apparent first-order rate of reaction of ONOO- with antioxidant.
A short description of data set [2]: The compound was evaluated for the apparent first-order rate of reaction of ONOO- with antioxidant in presence of catalyst.
Data set [3] is described as follows: The compound was evaluated for the rate of oxoMn (IV) reduction.

For `O=C1O[C@H]([C@@H](O)CO)C(O)=C1O` [ASCORBIC ACID], in data set [1], the kONOO- is 88 M⁻¹ s⁻¹. The k cat in data set [2] was 2200000 M⁻¹ s⁻¹. The compound further showed a kred in data set [3] of 54000000 M⁻¹ s⁻¹.
With `N[C@@H](CCC(=O)N[C@@H](CS)C(=O)NCC(=O)O)C(=O)O` [GLUTATHIONE], in data set [1], the kONOO- amounted to 580 M⁻¹ s⁻¹. For the same compound, in data set [2], the k cat was found to be 3200000 M⁻¹ s⁻¹. Also, the kred in data set [3] turned out to be 130000 M⁻¹ s⁻¹.
`Cc1c(C)c2c(c(C)c1O)CCC(C)(C(=O)O)O2` (centres undefined) [TROLOX]: the kONOO- in data set [1] amounted to 33 M⁻¹ s⁻¹. In data set [2], the k cat was determined as 1100000 M⁻¹ s⁻¹. For the same compound, in data set [3], the kred was 7000000 M⁻¹ s⁻¹.
